Molecular target: T1, CbCBP (cellobiose phosphorylase) (Caldicellulosiruptor bescii, UniProt A0ABY1SBL4)
T1 construct: gene SAMN05216240_2653; C-terminal (His)6 tag, pET20b, E. coli BL21 CodonPlus-RIL; 94 kDa on SDS-PAGE, about 200 kDa native (homodimer); GH94
T1 sequence (A0ABY1SBL4 1-811): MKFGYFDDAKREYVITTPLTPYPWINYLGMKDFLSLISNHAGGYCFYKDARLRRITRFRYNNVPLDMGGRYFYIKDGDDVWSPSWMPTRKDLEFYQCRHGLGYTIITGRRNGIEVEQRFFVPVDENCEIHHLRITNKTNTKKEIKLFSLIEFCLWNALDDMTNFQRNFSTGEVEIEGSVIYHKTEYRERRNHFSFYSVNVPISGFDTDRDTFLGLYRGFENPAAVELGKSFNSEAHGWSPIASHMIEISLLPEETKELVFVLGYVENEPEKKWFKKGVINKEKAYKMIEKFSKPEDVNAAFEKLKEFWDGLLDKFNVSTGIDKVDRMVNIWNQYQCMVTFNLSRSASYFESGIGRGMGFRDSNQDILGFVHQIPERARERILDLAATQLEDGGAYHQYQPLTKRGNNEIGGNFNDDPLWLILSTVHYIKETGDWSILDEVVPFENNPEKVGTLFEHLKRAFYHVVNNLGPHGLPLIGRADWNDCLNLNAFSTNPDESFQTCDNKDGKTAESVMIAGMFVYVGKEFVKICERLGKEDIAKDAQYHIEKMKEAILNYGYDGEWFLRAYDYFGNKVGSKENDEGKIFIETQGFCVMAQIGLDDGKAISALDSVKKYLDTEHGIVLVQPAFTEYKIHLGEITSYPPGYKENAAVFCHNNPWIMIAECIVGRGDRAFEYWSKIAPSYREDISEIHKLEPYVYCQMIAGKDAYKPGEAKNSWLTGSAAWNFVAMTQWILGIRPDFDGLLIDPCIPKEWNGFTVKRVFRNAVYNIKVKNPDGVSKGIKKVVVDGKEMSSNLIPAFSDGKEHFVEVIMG
Test: initial velocity, D-glucose release (glucose oxidase-peroxidase), fit to ordered Bi Bi equation
Assay type: biochemical
Conditions: phosphorolysis; substrate constant of the ordered Bi Bi rate equation with A = cellobiose, not an inhibitor constant; text states Pi binds first; MES-NaOH pH 7.0; 75 °C in Methods, 70 °C in Results
Source text: initial velocity, D-glucose release (glucose oxidase-peroxidase), fit to ordered Bi Bi equation on CbCBP (cellobiose phosphorylase)

Ki^A: 3.3 mM
Structure (SMILES): OC[C@H]1O[C@@H](O[C@H]2[C@H](O)[C@@H](O)C(O)O[C@@H]2CO)[C@H](O)[C@@H](O)[C@@H]1O (stereo partly shown) [cellobiose]

From article PMC8913831 (Scientific Reports, 2022)
